Activity calls are given as the source filed them.
Experiments:
Bacillus subtilis [1] = assay: Antimicrobial activity against Bacillus subtilis in presence of >= 5 mM Ca2+; type: functional, organism-based
Saccharomyces cerevisiae [2] = assay: Antimicrobial activity against Saccharomyces cerevisiae BY4742; type: functional, organism-based
A549 [3] = assay: Cytotoxicity against human A549 cells assessed as reduction in cell viability; type: functional, cell-based
Staphylococcus aureus [4] = assay: Antimicrobial activity against Staphylococcus aureus 1415-10 in presence of >= 5 uM Ca2+; type: functional, organism-based
Staphylococcus aureus [5] = assay: Antimicrobial activity against methicillin-sensitive Staphylococcus aureus ATCC 29213 in presence of >= 5 uM Ca2+; type: functional, organism-based
[6] = system: Staphylococcus epidermidis; assay: Antimicrobial activity against Staphylococcus epidermidis in presence of >= 5 uM Ca2+; type: functional, organism-based
HepG2 [7] = assay: Cytotoxicity against human HepG2 cells assessed as reduction in cell viability in presence of >= 5 uM Ca2+; type: functional, cell-based
Saccharomyces cerevisiae [8] = assay: Antimicrobial activity against Saccharomyces cerevisiae BY4742 in presence of >= 5 uM Ca2+; type: functional, organism-based
Acinetobacter baumannii [9] = assay: Antimicrobial activity against Acinetobacter baumannii MB5973 in presence of >= 5 uM Ca2+; type: functional, organism-based
Acinetobacter baumannii [10] = assay: Antimicrobial activity against Acinetobacter baumannii 1710; type: functional, organism-based
Streptococcus pneumoniae [11] = assay: Antimicrobial activity against Streptococcus pneumoniae ATCC 46619 in presence of >= 5 uM Ca2+; type: functional, organism-based
Staphylococcus aureus [12] = assay: Antimicrobial activity against methicillin-resistant Staphylococcus aureus MB5393 in presence of >= 5 uM Ca2+; type: functional, organism-based
Acinetobacter baumannii [13] = assay: Antimicrobial activity against Acinetobacter baumannii 1799 in presence of >= 5 uM Ca2+; type: functional, organism-based
MIA PaCa-2 [14] = assay: Cytotoxicity against human MIA PaCa-2 cells assessed as reduction in cell viability in presence of >= 5 uM Ca2+; type: functional, cell-based
Fusarium graminearum [15] = assay: Antimicrobial activity against Fusarium graminearum CBS 112.30 in presence of >= 5 uM Ca2+; type: functional, organism-based
[16] = system: Staphylococcus epidermidis; assay: Antimicrobial activity against Staphylococcus epidermidis; type: functional, organism-based
Fusarium graminearum [17] = assay: Antimicrobial activity against Fusarium graminearum CBS 112.30; type: functional, organism-based
Staphylococcus aureus [18] = assay: Antimicrobial activity against Staphylococcus aureus MB2865; type: functional, organism-based
A2058 [19] = assay: Cytotoxicity against human A2058 cells assessed as reduction in cell viability in presence of >= 5 uM Ca2+; type: functional, cell-based
MIA PaCa-2 [20] = assay: Cytotoxicity against human MIA PaCa-2 cells assessed as reduction in cell viability; type: functional, cell-based
Staphylococcus aureus [21] = assay: Antimicrobial activity against methicillin-sensitive Staphylococcus aureus ATCC 29213; type: functional, organism-based
Streptomyces coelicolor [22] = assay: Antimicrobial activity against Streptomyces coelicolor A3; type: functional, organism-based
Staphylococcus aureus [23] = assay: Antimicrobial activity against Staphylococcus aureus 1415-10; type: functional, organism-based
Bacillus subtilis [24] = assay: Antimicrobial activity against Bacillus subtilis in presence of >= 5 mM Mn2+; type: functional, organism-based
Acinetobacter baumannii [25] = assay: Antimicrobial activity against Acinetobacter baumannii 1710 in presence of >= 5 uM Ca2+; type: functional, organism-based
Staphylococcus aureus [26] = assay: Antimicrobial activity against methicillin-resistant Staphylococcus aureus MB5393; type: functional, organism-based
Acinetobacter baumannii [27] = assay: Antimicrobial activity against Acinetobacter baumannii 1799; type: functional, organism-based
Streptomyces coelicolor [28] = assay: Antimicrobial activity against Streptomyces coelicolor A3 in presence of >= 5 uM Ca2+; type: functional, organism-based
A2058 [29] = assay: Cytotoxicity against human A2058 cells assessed as reduction in cell viability; type: functional, cell-based
HepG2 [30] = assay: Cytotoxicity against human HepG2 cells assessed as reduction in cell viability; type: functional, cell-based
Bacillus subtilis [31] = assay: Antimicrobial activity against Bacillus subtilis in presence of >= 5 mM Mg2+; type: functional, organism-based
Staphylococcus aureus [32] = assay: Antimicrobial activity against Staphylococcus aureus MB2865 in presence of >= 5 uM Ca2+; type: functional, organism-based
Aspergillus niger [33] = assay: Antimicrobial activity against Aspergillus niger CBS 110271 in presence of >= 5 uM Ca2+; type: functional, organism-based
Aspergillus niger [34] = assay: Antimicrobial activity against Aspergillus niger CBS 110271; type: functional, organism-based
A549 [35] = assay: Cytotoxicity against human A549 cells assessed as reduction in cell viability in presence of >= 5 uM Ca2+; type: functional, cell-based
Streptococcus pneumoniae [36] = assay: Antimicrobial activity against Streptococcus pneumoniae ATCC 46619; type: functional, organism-based
Bacillus subtilis [37] = assay: Antimicrobial activity against Bacillus subtilis in presence of >= 5 mM Zn2+; type: functional, organism-based
Acinetobacter baumannii [38] = assay: Antimicrobial activity against Acinetobacter baumannii MB5973; type: functional, organism-based

Measured: Activity

CC[C@H](C)[C@H](NC(=O)[C@H](CC(N)=O)NC(=O)/C=C\C=C\CCC(C)C)C(=O)N[C@H](Cc1ccccc1)C(=O)N[C@H](CS(=O)(=O)O)C(=O)N[C@@H](CC(=O)O)C(=O)N[C@@H]1C(=O)N(C)[C@H](C(C)C)C(=O)NCC(=O)NCC(=O)N[C@H](CCC(=O)O)C(=O)N[C@@H](C)C(=O)N2CCC[C@H]2C(=O)O[C@@H]1C
inactive: all assays above

CC[C@H](C)[C@H](NC(=O)[C@H](CC(N)=O)NC(=O)/C=C\C=C\CCC(C)C)C(=O)N[C@H](Cc1ccccc1)C(=O)N[C@H](CC(=O)O)C(=O)N[C@@H](CC(=O)O)C(=O)N[C@@H]1C(=O)N(C)[C@H](C(C)C)C(=O)NCC(=O)NCC(=O)N[C@H](CCC(=O)O)C(=O)N[C@@H](C)C(=O)N2CCC[C@H]2C(=O)O[C@@H]1C
inactive: all assays above

Reference: ChEMBL document CHEMBL4665746, “Viennamycins: Lipopeptides Produced by a Streptomyces sp” (J Nat Prod, 2020)
